According to ChEMBL document CHEMBL4406898, “Dual mode of binding of anti cancer drug epirubicin to G-quadruplex [d-(TTAGGGT)]4 containing human telomeric DNA sequence induces thermal stabilization” (Bioorg Med Chem, 2019):
Activity calls are given as the source filed them. No cut-off for these calls is given here.

How the values were obtained:
[1] = Self aggregation behaviour in phosphate buffer solution assessed as effect on absorption spectra at >10 uM by absorption spectroscopy; assay type: physicochemical
Quadruplex DNA [2] = assay: Binding affinity to human telomeric 7 G-quadruplex DNA assessed as hypochromic red shift at 7 uM by absorption spectroscopy relative to untreated control; assay type: nucleic-acid assay
Quadruplex DNA [3] = assay: Binding affinity to human telomeric 7 G-quadruplex DNA assessed as hypochromic red shift by measuring difference in maximum absorption at 7 uM by absorption spectroscopy; assay type: nucleic-acid assay
Quadruplex DNA [4] = assay: Binding affinity to human telomeric 7 G-quadruplex DNA assessed as drug-DNA complex stoichiometry ratio of 1:1 at 7 uM by absorption spectroscopy; assay type: nucleic-acid assay
Quadruplex DNA [5] = assay: Binding affinity to human telomeric 7 G-quadruplex DNA assessed as drug-DNA complex stoichiometry ratio of 2:1 at 7 uM by absorption spectroscopy; assay type: nucleic-acid assay
Quadruplex DNA [6] = assay: Binding affinity to human telomeric 7 G-quadruplex DNA incubated for 5 mins by UV-visible spectrophotometric analysis; assay type: nucleic-acid assay
Quadruplex DNA [7] = assay: Binding affinity to human telomeric 7 G-quadruplex DNA assessed as fluorescence quenching at 7 uM by fluorescence spectral analysis; assay type: nucleic-acid assay
Quadruplex DNA [8] = assay: Binding affinity to human telomeric 7 G-quadruplex DNA assessed as fluorescence quenching at 7 uM measured at 559.5 nanometer by fluorescence spectral analysis relative to control; assay type: nucleic-acid assay
Quadruplex DNA [9] = assay: Binding affinity to human telomeric 7 G-quadruplex DNA assessed as fluorescence quenching at 7 uM measured at 591 nanometer by fluorescence spectral analysis relative to control; assay type: nucleic-acid assay
Quadruplex DNA [10] = assay: Binding affinity to human telomeric 7 G-quadruplex DNA assessed as red shift in emission wavelength at 7 uM measured at 559.5 nanometer by fluorescence spectral analysis; assay type: nucleic-acid assay
Quadruplex DNA [11] = assay: Binding affinity to human telomeric 7 G-quadruplex DNA assessed as red shift in emission wavelength at 7 uM measured at 591 nanometer by fluorescence spectral analysis; assay type: nucleic-acid assay
Quadruplex DNA [12] = assay: Binding affinity to human telomeric 7 G-quadruplex DNA assessed as binding constant Kb1 at 591 nanometer by spectrofluorimetric analysis; assay type: nucleic-acid assay
Quadruplex DNA [13] = assay: Binding affinity to human telomeric 7 G-quadruplex DNA assessed as binding constant Kb2 at 591 nanometer by spectrofluorimetric analysis; assay type: nucleic-acid assay
Quadruplex DNA [14] = assay: Binding affinity to human telomeric 7 G-quadruplex DNA assessed as binding constant Kb1 at 559.5 nanometer by spectrofluorimetric analysis; assay type: nucleic-acid assay
Quadruplex DNA [15] = assay: Binding affinity to human telomeric 7 G-quadruplex DNA assessed as binding constant Kb2 at 559.5 nanometer by spectrofluorimetric analysis; assay type: nucleic-acid assay
Quadruplex DNA [16] = assay: Binding affinity to human telomeric 7 G-quadruplex DNA assessed as stern-volmer quenching constant in compound:DNA ratio of 0.4 to 1.0 by spectrofluorimetric analysis; assay type: nucleic-acid assay
Quadruplex DNA [17] = assay: Binding affinity to human telomeric 7 G-quadruplex DNA assessed as quenching constant by spectrofluorimetric analysis; assay type: nucleic-acid assay
Quadruplex DNA [18] = assay: Effect on parallel topology of human telomeric 7 G-quadruplex DNA assessed as reduction in negative band ellipticity at compound:DNA ratio of 3:0 by CD spectroscopy relative to control; assay type: nucleic-acid assay; parameters: scale not given: the % may be the effect or the level left
Quadruplex DNA [19] = assay: Effect on parallel topology of human telomeric 7 G-quadruplex DNA assessed as reduction in negative band ellipticity at compound:DNA ratio of 4:0 by CD spectroscopy relative to control; assay type: nucleic-acid assay; parameters: scale not given: the % may be the effect or the level left
Quadruplex DNA [20] = assay: Effect on parallel topology of human telomeric 7 G-quadruplex DNA assessed as reduction in […] band ellipticity at 264 nm at compound:DNA ratio of 4:0 by CD spectroscopy relative to control; assay type: nucleic-acid assay; parameters: scale not given: the % may be the effect or the level left
Quadruplex DNA [21] = assay: Binding affinity to human telomeric 7 G-quadruplex DNA by CD spectroscopy; assay type: nucleic-acid assay
Quadruplex DNA [22] = assay: Binding affinity to human telomeric 7 G-quadruplex DNA assessed as melting temperature compound:DNA ratio of 1:0 by CD spectroscopy analysis; assay type: nucleic-acid assay
Quadruplex DNA [23] = assay: Binding affinity to human telomeric 7 G-quadruplex DNA assessed as melting temperature compound:DNA ratio of 2:0 to 4:0 by CD spectroscopy analysis; assay type: nucleic-acid assay
Quadruplex DNA [24] = assay: Binding affinity to human telomeric 7 G-quadruplex DNA assessed as change in melting temperature compound:DNA ratio of 2:0 by CD spectroscopy analysis; assay type: nucleic-acid assay
Quadruplex DNA [25] = assay: Binding affinity to human telomeric 7 G-quadruplex DNA assessed as melting temperature Tm1 compound:DNA ratio of 0:5 by CD spectroscopy analysis (reference value: 58.8 +/- 0.4 degreeC); assay type: nucleic-acid assay
Quadruplex DNA [26] = assay: Binding affinity to human telomeric 7 G-quadruplex DNA assessed as melting temperature Tm1 compound:DNA ratio of 2:0 by CD spectroscopy analysis (reference value: 58.8 +/- 0.4 degreeC); assay type: nucleic-acid assay
Quadruplex DNA [27] = assay: Binding affinity to human telomeric 7 G-quadruplex DNA assessed as delta Tm1 compound:DNA ratio of 0:5 by CD spectroscopy analysis; assay type: nucleic-acid assay
Quadruplex DNA [28] = assay: Binding affinity to human telomeric 7 G-quadruplex DNA assessed as delta Tm1 compound:DNA ratio of 2:0 by CD spectroscopy analysis; assay type: nucleic-acid assay
Quadruplex DNA [29] = assay: Binding affinity to human telomeric 7 G-quadruplex DNA assessed as melting temperature Tm2 compound:DNA ratio of 2:0 by CD spectroscopy analysis (reference value: 64.3 +/- 0.2 degreeC); assay type: nucleic-acid assay
Quadruplex DNA [30] = assay: Binding affinity to human telomeric 7 G-quadruplex DNA assessed as delta Tm2 compound:DNA ratio of 2:0 by CD spectroscopy analysis; assay type: nucleic-acid assay
Quadruplex DNA [31] = assay: Binding affinity to human telomeric 7 G-quadruplex DNA assessed as melting temperature Tm3 compound:DNA ratio of 0:5 by CD spectroscopy analysis; assay type: nucleic-acid assay
Quadruplex DNA [32] = assay: Binding affinity to human telomeric 7 G-quadruplex DNA assessed as delta Tm3 compound:DNA ratio of 2:0 by CD spectroscopy analysis; assay type: nucleic-acid assay
Quadruplex DNA [33] = assay: Binding affinity to human telomeric 7 G-quadruplex DNA assessed as fluorescence quenching at 7 uM in presence of 100 to 150 mM K+ ion by fluorescence spectral analysis relative to control; assay type: nucleic-acid assay
Quadruplex DNA [34] = assay: Binding affinity to human telomeric 7 G-quadruplex DNA assessed as hypochromic red shift at 7 uM in presence of 100 to 150 mM K+ ion by fluorescence spectral analysis; assay type: nucleic-acid assay
Quadruplex DNA [35] = assay: Binding affinity to human telomeric 7 G-quadruplex DNA assessed as fluorescence quenching at 7 uM in presence of water by fluorescence spectral analysis relative to control; assay type: nucleic-acid assay
Quadruplex DNA [36] = assay: Binding affinity to human telomeric 7 G-quadruplex DNA assessed as hypochromic red shift at 7 uM in presence of water by fluorescence spectral analysis; assay type: nucleic-acid assay
Quadruplex DNA [37] = assay: Binding affinity to human telomeric 7 G-quadruplex DNA assessed as fluorescence quenching at 7 uM in presence of 100 mM NaCl by fluorescence spectral analysis relative to control; assay type: nucleic-acid assay
Quadruplex DNA [38] = assay: Binding affinity to human telomeric 7 G-quadruplex DNA assessed as hypochromic red shift at 7 uM in presence of 100 mM NaCl by fluorescence spectral analysis; assay type: nucleic-acid assay
Quadruplex DNA [39] = assay: Binding affinity to human telomeric 22 G-quadruplex DNA assessed as binding constant in presence of NaCl by CD spectroscopy analysis; assay type: nucleic-acid assay
Quadruplex DNA [40] = assay: Binding affinity to human telomeric 22 G-quadruplex DNA assessed as binding constant in presence of KCl by CD spectroscopy analysis; assay type: nucleic-acid assay
Tetrahymena thermophila [41] = assay: Binding affinity to Tetrahymena thermophila telomeric 22 G-quadruplex DNA assessed as binding constant Kb1
Tetrahymena thermophila [42] = assay: Binding affinity to Tetrahymena thermophila telomeric 22 G-quadruplex DNA assessed as binding constant Kb2
Quadruplex DNA [43] = assay: Binding affinity to human telomeric 7 G-quadruplex DNA assessed as stern-volmer quenching constant in compound:DNA ratio of 1.2 to 3.8 by spectrofluorimetric analysis; assay type: nucleic-acid assay
Quadruplex DNA [44] = assay: Binding affinity to human telomeric 7 G-quadruplex DNA at compound:DNA ratio of 0.4 to 1.0 by spectrofluorimetric analysis; assay type: nucleic-acid assay
Quadruplex DNA [45] = assay: Binding affinity to human telomeric 7 G-quadruplex DNA at compound:DNA ratio of 2.3 to 6.1 by spectrofluorimetric analysis; assay type: nucleic-acid assay
Quadruplex DNA [46] = assay: Binding affinity to human telomeric 7 G-quadruplex DNA assessed as binding constant Kb1 in water by fluorescence spectral analysis; assay type: nucleic-acid assay
Quadruplex DNA [47] = assay: Binding affinity to human telomeric 7 G-quadruplex DNA assessed as binding constant Kb2 in water by fluorescence spectral analysis; assay type: nucleic-acid assay
Quadruplex DNA [48] = assay: Binding affinity to human telomeric 7 G-quadruplex DNA assessed as binding constant Kb1 in 100 mM NaCl by fluorescence spectral analysis; assay type: nucleic-acid assay
Quadruplex DNA [49] = assay: Binding affinity to human telomeric 7 G-quadruplex DNA assessed as binding constant Kb2 in 100 mM NaCl by fluorescence spectral analysis; assay type: nucleic-acid assay
Quadruplex DNA [50] = assay: Binding affinity to human telomeric 7 G-quadruplex DNA assessed as binding constant Kb1 in absence of KCl by fluorescence spectral analysis; assay type: nucleic-acid assay
Quadruplex DNA [51] = assay: Binding affinity to human telomeric 7 G-quadruplex DNA assessed as binding constant Kb2 in absence of KCl by fluorescence spectral analysis; assay type: nucleic-acid assay
Quadruplex DNA [52] = assay: Binding affinity to human telomeric 7 G-quadruplex DNA assessed as binding constant Kb1 in 50 mM of KCl by fluorescence spectral analysis; assay type: nucleic-acid assay
Quadruplex DNA [53] = assay: Binding affinity to human telomeric 7 G-quadruplex DNA assessed as binding constant Kb2 in 50 mM of KCl by fluorescence spectral analysis; assay type: nucleic-acid assay
Quadruplex DNA [54] = assay: Binding affinity to human telomeric 7 G-quadruplex DNA assessed as binding constant Kb1 in 150 mM of KCl by fluorescence spectral analysis; assay type: nucleic-acid assay
Quadruplex DNA [55] = assay: Binding affinity to human telomeric 7 G-quadruplex DNA assessed as binding constant Kb2 in 150 mM of KCl by fluorescence spectral analysis; assay type: nucleic-acid assay
Quadruplex DNA [56] = assay: Binding affinity to human telomeric 7 G-quadruplex DNA assessed as binding constant Kb1 in 100 mM KCl by fluorescence spectral analysis; assay type: nucleic-acid assay
Quadruplex DNA [57] = assay: Binding affinity to human telomeric 7 G-quadruplex DNA assessed as binding constant Kb2 in 100 mM KCl by fluorescence spectral analysis; assay type: nucleic-acid assay

## COc1cccc2c1C(=O)c1c(O)c3c(c(O)c1C2=O)C[C@@](O)(C(=O)CO)C[C@@H]3O[C@H]1C[C@H](N)[C@@H](O)[C@H](C)O1 [EPIRUBICIN]
[1]
  Activity: Active
Quadruplex DNA [2]
  Activity: 47.6%
Quadruplex DNA [3]
  deltaA: 9 nm
Quadruplex DNA [4]
  Activity: Active
Quadruplex DNA [5]
  Activity: Active
Quadruplex DNA [6]
  Kb: 2.3 ×10⁶ /M
Quadruplex DNA [7]
  Activity: Active
Quadruplex DNA [8]
  Activity: 93%
Quadruplex DNA [9]
  Activity: 92%
Quadruplex DNA [10]
  deltaA: 8 nm
Quadruplex DNA [11]
  deltaA: 16 nm
Quadruplex DNA [12]
  Kb: 2.7 ×10⁶ /M
Quadruplex DNA [13]
  Kb: 3.8 ×10⁶ /M
Quadruplex DNA [14]
  Kb: 2 ×10⁶ /M
Quadruplex DNA [15]
  Kb: 4.6 ×10⁵ /M
Quadruplex DNA [16]
  KSV: 4.1 ×10⁵ /M
Quadruplex DNA [17]
  Kq: 7.5 ×10¹⁴ /M/s
Quadruplex DNA [18]
  Activity: 90%
Quadruplex DNA [19]
  Activity: 59%
Quadruplex DNA [20]
  Activity: 18%
Quadruplex DNA [21]
  Kb: 1.9 ×10⁶ /M
Quadruplex DNA [22]
  Tm: 65 °C
Quadruplex DNA [23]
  Tm: 70 °C
Quadruplex DNA [24]
  ΔTm: 15 °C
Quadruplex DNA [25]
  Tm: 68.1 °C
Quadruplex DNA [26]
  Tm: 70.4 °C
Quadruplex DNA [27]
  ΔTm: 9.3 °C
Quadruplex DNA [28]
  ΔTm: 11.6 °C
Quadruplex DNA [29]
  Tm: 77.5 °C
Quadruplex DNA [30]
  ΔTm: 13.2 °C
Quadruplex DNA [31]
  Tm: 90.6 °C
Quadruplex DNA [32]
  ΔTm: 26.3 °C
Quadruplex DNA [33]
  Activity: 89%
Quadruplex DNA [34]
  deltaA: 8 to 16 nm
Quadruplex DNA [35]
  Activity: 60%
Quadruplex DNA [36]
  deltaA: 0.5 nm
Quadruplex DNA [37]
  Activity: 39%
Quadruplex DNA [38]
  deltaA: 1 nm
Quadruplex DNA [39]
  Kb: 2.5 ×10⁴ /M
Quadruplex DNA [40]
  Kb: 3 to 3.6 ×10⁵ /M
Tetrahymena thermophila [41]
  Kb: 1.9 ×10⁶ /M
Tetrahymena thermophila [42]
  Kb: 2.3 ×10⁵ /M
Quadruplex DNA [43]
  KSV: 1.1 ×10⁶ /M
Quadruplex DNA [44]
  Kb: 2 ×10⁶ /M
Quadruplex DNA [45]
  Kb: 4.6 ×10⁵ /M
Quadruplex DNA [46]
  Kb: 8.4 ×10⁴ /M
Quadruplex DNA [47]
  Kb: 53 ×10⁴ /M
Quadruplex DNA [48]
  Kb: 3.5 ×10⁴ /M
Quadruplex DNA [49]
  Kb: 7.3 ×10⁴ /M
Quadruplex DNA [50]
  Kb: 1.8 ×10⁴ /M
Quadruplex DNA [51]
  Kb: 0.24 ×10⁴ /M
Quadruplex DNA [52]
  Kb: 2.7 ×10⁶ /M
Quadruplex DNA [53]
  Kb: 3.8 ×10⁶ /M
Quadruplex DNA [54]
  Kb: 1.3 to 1.9 ×10⁶ /M
Quadruplex DNA [55]
  Kb: 4.6 ×10⁶ /M
Quadruplex DNA [56]
  Kb: 2.3 ×10⁶ /M
Quadruplex DNA [57]
  Kb: 4 ×10⁶ /M
